Results as given in PMC11859928, “Design, Synthesis, and Antiproliferative Activity of Novel Indole/1,2,4-Triazole Hybrids as Tubulin Polymerization Inhibitors” (Pharmaceuticals, 2025).

Columns and labels:
Experiment in all cases: NCI one-dose assay
SNB-75 = assay type: cell-based; details: Homo sapiens, SNB-75, CNS cancer, read-out: Cell growth inhibition %
OVCAR-4 = assay type: cell-based; details: Homo sapiens, OVCAR-4, Ovarian cancer, read-out: Cell growth inhibition %
MALME-3M = assay type: cell-based; details: Homo sapiens, Melanoma, read-out: Cell growth inhibition %
NCI-H522 = assay type: cell-based; details: Homo sapiens, NCI-H522, Non-small cell lung cancer, read-out: Cell growth inhibition %
MCF7 = assay type: cell-based; details: Homo sapiens, MCF7, Breast cancer, read-out: Cell growth inhibition %
ACHN = assay type: cell-based; details: Homo sapiens, Renal cancer, read-out: Cell growth inhibition %
HOP-62 = assay type: cell-based; details: Homo sapiens, HOP-62, Non-small cell lung cancer, read-out: Cell growth inhibition %
CCRF-CEM = assay type: cell-based; details: Homo sapiens, Leukemia, read-out: Cell growth inhibition %
SN12C = assay type: cell-based; details: Homo sapiens, Renal cancer, read-out: Cell growth inhibition %
OVCAR-5 = assay type: cell-based; details: Homo sapiens, OVCAR-5, Ovarian cancer, read-out: Cell growth inhibition %
NCI-H23 = assay type: cell-based; details: Homo sapiens, NCI-H23, Non-small cell lung cancer, read-out: Cell growth inhibition %
SK-MEL-28 = assay type: cell-based; details: Homo sapiens, SK-MEL-28, Melanoma, read-out: Cell growth inhibition %
OVCAR-3 = assay type: cell-based; details: Homo sapiens, OVCAR-3, Ovarian cancer, read-out: Cell growth inhibition %
KM12 = assay type: cell-based; details: Homo sapiens, KM12, Colon cancer, read-out: Cell growth inhibition %
COLO 205 = assay type: cell-based; details: Homo sapiens, COLO 205, Colon cancer, read-out: Cell growth inhibition %
NCI-H226 = assay type: cell-based; details: Homo sapiens, NCI-H226, Non-small cell lung cancer, read-out: Cell growth inhibition %
U251 = assay type: cell-based; details: Homo sapiens, U-251, U251, CNS cancer, read-out: Cell growth inhibition %
SW-620 = assay type: cell-based; details: Homo sapiens, SW-620, Colon cancer, read-out: Cell growth inhibition %
RPMI-8226 = assay type: cell-based; details: Homo sapiens, RPMI-8226, Leukemia, read-out: Cell growth inhibition %
CAKI-1 = assay type: cell-based; details: Homo sapiens, CAKI-1, Renal cancer, read-out: Cell growth inhibition %
SK-MEL-2 = assay type: cell-based; details: Homo sapiens, SK-MEL-2, Melanoma, read-out: Cell growth inhibition %
PC-3 = assay type: cell-based; details: Homo sapiens, PC-3, Prostate cancer, read-out: Cell growth inhibition %
HL-60(TB) = assay type: cell-based; details: Homo sapiens, Leukemia, read-out: Cell growth inhibition %
HCT-116 = assay type: cell-based; details: Homo sapiens, HCT-116, Colon cancer, read-out: Cell growth inhibition %
T-47D = assay type: cell-based; details: Homo sapiens, T47D, Breast cancer, read-out: Cell growth inhibition %
UACC-257 = assay type: cell-based; details: Homo sapiens, UACC-257, Melanoma, read-out: Cell growth inhibition %
HCC-2998 = assay type: cell-based; details: Homo sapiens, HCC-2998, Colon cancer, read-out: Cell growth inhibition %
TK-10 = assay type: cell-based; details: Homo sapiens, TK-10, Renal cancer, read-out: Cell growth inhibition %
K-562 = assay type: cell-based; details: Homo sapiens, K562, K-562, Leukemia, read-out: Cell growth inhibition %
DU-145 = assay type: cell-based; details: Homo sapiens, DU-145, Prostate cancer, read-out: Cell growth inhibition %
SNB-19 = assay type: cell-based; details: Homo sapiens, SNB-19, CNS cancer, read-out: Cell growth inhibition %
NCI-H322M = assay type: cell-based; details: Homo sapiens, Non-small cell lung cancer, read-out: Cell growth inhibition %
786-0 = assay type: cell-based, human; details: Homo sapiens, 786-0, 786-0, Renal cancer, read-out: Cell growth inhibition %
HOP-92 = assay type: cell-based, human; details: Homo sapiens, HOP-92, HOP-92, Non-small cell lung cancer, read-out: Cell growth inhibition %
UO-31 = assay type: cell-based, human; details: Homo sapiens, UO-31, UO-31, Renal cancer, read-out: Cell growth inhibition %

SMILES: O=C(CSc1nnc(-c2c[nH]c3ccccc23)n1-c1ccccc1)c1ccc(Br)cc1 [Compound 6i, 2-((5-(1H-Indol-3-yl)-4-phenyl-4H-1,2,4-triazol-3-yl)thio)-1-(4-bromophenyl) Ethenone]
- inhibition at 10 µM (SNB-75): 61.2%
- inhibition at 10 µM (OVCAR-4): 53.8%
- inhibition at 10 µM (MALME-3M): 29%
- inhibition at 10 µM (NCI-H522): 53.7%
- inhibition at 10 µM (MCF7): 46.6%
- inhibition at 10 µM (ACHN): 62.6%
- inhibition at 10 µM (HOP-62): 26.4%
- inhibition at 10 µM (CCRF-CEM): 13.6%
- inhibition at 10 µM (SN12C): 27.1%
- inhibition at 10 µM (OVCAR-5): 41.7%
- inhibition at 10 µM (NCI-H23): 46%
- inhibition at 10 µM (SK-MEL-28): 65.1%
- inhibition at 10 µM (OVCAR-3): 57.5%
- inhibition at 10 µM (KM12): 65.4%
- inhibition at 10 µM (COLO 205): 86.5%
- inhibition at 10 µM (NCI-H226): 60.9%
- inhibition at 10 µM (U251): 38.4%
- inhibition at 10 µM (SW-620): 20.2%
- inhibition at 10 µM (RPMI-8226): 45.6%
- inhibition at 10 µM (CAKI-1): 55.7%
- inhibition at 10 µM (SK-MEL-2): 119%
- inhibition at 10 µM (PC-3): 53.8%
- inhibition at 10 µM (HL-60(TB)): 55.5%
- inhibition at 10 µM (HCT-116): 45.7%
- inhibition at 10 µM (T-47D): 78%
- inhibition at 10 µM (UACC-257): 47.5%
- inhibition at 10 µM (HCC-2998): 68.3%
- inhibition at 10 µM (TK-10): 35.1%
- inhibition at 10 µM (K-562): 18%
- inhibition at 10 µM (DU-145): 41.5%
- inhibition at 10 µM (SNB-19): 29.8%
- inhibition at 10 µM (NCI-H322M): 54.3%
- inhibition at 10 µM (786-0): 17.6%
- inhibition at 10 µM (HOP-92): 71.9%
- inhibition at 10 µM (UO-31): 74%

SMILES: O=C(CSc1nnc(-c2c[nH]c3ccccc23)n1-c1ccccc1)c1ccc(Cl)cc1 [Compound 6j, 2-((5-(1H-indol-3-yl)-4-phenyl-4H-1,2,4-triazol-3-yl)thio)-1-(4-chlorophenyl) Ethenone]
- inhibition at 10 µM (SNB-75): 45.3%
- inhibition at 10 µM (OVCAR-4): 85.1%
- inhibition at 10 µM (MALME-3M): 36%
- inhibition at 10 µM (NCI-H522): 33%
- inhibition at 10 µM (MCF7): 61.6%
- inhibition at 10 µM (ACHN): 42.5%
- inhibition at 10 µM (HOP-62): 53%
- inhibition at 10 µM (CCRF-CEM): 7.26%
- inhibition at 10 µM (SN12C): 35.4%
- inhibition at 10 µM (OVCAR-5): 9.28%
- inhibition at 10 µM (NCI-H23): 59.2%
- inhibition at 10 µM (SK-MEL-28): 31.7%
- inhibition at 10 µM (OVCAR-3): 26.1%
- inhibition at 10 µM (KM12): 21.3%
- inhibition at 10 µM (COLO 205): 57.4%
- inhibition at 10 µM (NCI-H226): 82.4%
- inhibition at 10 µM (U251): 69.9%
- inhibition at 10 µM (SW-620): 29.7%
- inhibition at 10 µM (RPMI-8226): 16.8%
- inhibition at 10 µM (CAKI-1): 35.5%
- inhibition at 10 µM (SK-MEL-2): 66.3%
- inhibition at 10 µM (PC-3): 39.5%
- inhibition at 10 µM (HL-60(TB)): 11.1%
- inhibition at 10 µM (HCT-116): 54.2%
- inhibition at 10 µM (T-47D): 45.4%
- inhibition at 10 µM (UACC-257): 27.7%
- inhibition at 10 µM (HCC-2998): 21.9%
- inhibition at 10 µM (TK-10): 16%
- inhibition at 10 µM (K-562): 31%
- inhibition at 10 µM (DU-145): 11.6%
- inhibition at 10 µM (SNB-19): 60%
- inhibition at 10 µM (NCI-H322M): 41.3%
- inhibition at 10 µM (786-0): 55.1%
- inhibition at 10 µM (HOP-92): 35%
- inhibition at 10 µM (UO-31): 45.2%

SMILES: C=CCn1c(SC/C(=N\O)c2ccccc2)nnc1-c1c[nH]c2ccccc12 [Compound 7a, (Z)-2-((4-Allyl-5-(1H-indol-3-yl)-4H-1,2,4-triazol-3-yl)thio)-1-phenylethanone Oxime]
- inhibition at 10 µM (SNB-75): -3.17%
- inhibition at 10 µM (OVCAR-4): -8.19%
- inhibition at 10 µM (MALME-3M): 7.6%
- inhibition at 10 µM (NCI-H522): 4.48%
- inhibition at 10 µM (MCF7): -2.96%
- inhibition at 10 µM (ACHN): 3.82%
- inhibition at 10 µM (HOP-62): 9.66%
- inhibition at 10 µM (CCRF-CEM): 0.66%
- inhibition at 10 µM (SN12C): 2.4%
- inhibition at 10 µM (OVCAR-5): -3.15%
- inhibition at 10 µM (NCI-H23): -1.28%
- inhibition at 10 µM (SK-MEL-28): -4.36%
- inhibition at 10 µM (OVCAR-3): -14.9%
- inhibition at 10 µM (KM12): -2.55%
- inhibition at 10 µM (COLO 205): 2.04%
- inhibition at 10 µM (NCI-H226): 12.1%
- inhibition at 10 µM (U251): 4.62%
- inhibition at 10 µM (SW-620): 0.27%
- inhibition at 10 µM (RPMI-8226): 0.38%
- inhibition at 10 µM (CAKI-1): 6.71%
- inhibition at 10 µM (SK-MEL-2): -6.77%
- inhibition at 10 µM (PC-3): 9.77%
- inhibition at 10 µM (HL-60(TB)): 9.34%
- inhibition at 10 µM (HCT-116): 9.24%
- inhibition at 10 µM (T-47D): 8.67%
- inhibition at 10 µM (UACC-257): -13.1%
- inhibition at 10 µM (HCC-2998): 0.84%
- inhibition at 10 µM (TK-10): -12.2%
- inhibition at 10 µM (K-562): 3.29%
- inhibition at 10 µM (DU-145): -5.82%
- inhibition at 10 µM (SNB-19): 6.82%
- inhibition at 10 µM (NCI-H322M): -0.17%
- inhibition at 10 µM (786-0): 4.91%
- inhibition at 10 µM (HOP-92): 5.05%
- inhibition at 10 µM (UO-31): 20.9%
